Source: patent US6211215A, “Heterocyclic compounds, their production and use” (Takeda Chemical Industries, Ltd., priority 1996, dated 2001)

Assays:
HER2 [1] = target: T1, HER2 (Homo sapiens, UniProt P04626); test: Inhibition of the activity of human growth factor receptor (HER2) tyrosine kinase; type: biochemical; design: the tyrosine kinase domain of the human HER2 gene was cloned; made in house; host or cells: insect cell line SF-21 (recombinant insect virus vector); conditions: HER2 receptor type tyrosine kinase; ELISA with HER3 substrate; read-out: Concentration of inhibiting HER2 (IC50)
Source text: As enzyme standard, the tyrosine kinase domain of the human HER2 gene was cloned to prepare the recombinant gene of insect virus vector, with which the insect cell line SF-21 was infected to produce an enzyme protein (Guy P. M. et al., Journal of Biological Chemistry Vol. 267, pp.13851-13856, 1992). As substrate, the phosphorylated tyrosine domain of the HER3 protein was cloned to prepare the recombinant gene of plasmid vector with which Escherichia Coli strain JM109 was infected to give an enzyme protein (Sierke S. L. et al., Biochemistry Vol. 32, pp.10102-10108, 1993). The enzymatic reaction was performed by the enzyme-linked immunological method which consisted of fixing the substrate protein in wells of a 96-well microtiter plate, adding the enzyme into the wells and quantitating phosphorylated tyrosine, which was the reaction product, by use of the anti-phosphorylated tyrosine antibody (Cleaveland J. S. et al., Analytical Biochemistry Vol. 190, pp249-253, 1990).
Target sequence in this assay (P04626 720-987 limits assumed): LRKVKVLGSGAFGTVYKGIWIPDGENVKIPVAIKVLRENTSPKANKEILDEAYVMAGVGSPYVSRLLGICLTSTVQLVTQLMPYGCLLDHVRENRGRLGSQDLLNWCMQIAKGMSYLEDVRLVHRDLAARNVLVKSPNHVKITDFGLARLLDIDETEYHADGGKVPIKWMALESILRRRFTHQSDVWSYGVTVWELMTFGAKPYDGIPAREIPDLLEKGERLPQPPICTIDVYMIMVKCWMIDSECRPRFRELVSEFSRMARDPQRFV

[2] = test system: human mammary cancer cell line; test: Selective in vitro inhibition of breast cancer cell growth (panel of cell lines, Test Example 6); type: cell-based; conditions: Table 6 cell lines
Experimental: 100 μl (containing 2,000 cells) of a cell suspension of various human breast cancer cell lines shown in [Table 6] was seeded in each well of the 96-well microtiter plates. The cells were incubated at 37° C. in a 5% carbon dioxide gas incubator. Next day, 100 μl of a 2 fold serial dilution of a compound solution was added to each well. The cultures were incubated for 3 days. The solution containing the compound was removed and the cells were washed with water. To the cells was added a 0.4% (V/W) dye SRB (dissolved in 1% acetic acid) solution to fix and stain the cell protein. The dye solution was removed and the fixed and stained cell protein was washed. The protein-bound dye was extracted with 200 μl of 10 mM Tris buffer. The optical density of the extracted dye was determined at the wavelength of 540 nm to estimate the quantity of the cells in terms of the protein quantity. Designating the protein quantity in the control to which no compound solution was added as 100%, the proportion of the residual protein quantity in each treated group was calculated, and IC50, which was the concentration of the compound required to inhibit the residual protein quantity to 50% the quantity of the control, was calculated.

MDA-MB-453 = test: In vitro inhibition of cell proliferation (1); type: cell-based; conditions: Homo sapiens, 72 h; Breast cancer MDA-MB-453; 3 days; SRB
Experimental: 100 μl (containing 2,000 cells) of a cell suspension of human breast cancer cell line MDA-MB-453 was seeded in each well of the 96-well microtiter plates. The cultures were incubated at 37° C. in a 5% carbon dioxide gas incubator. On the next day, 100 μl of the 2-fold serial dilution of each compound solution was added to each well and the mixtures were cultured for 3 days. The solution containing the compound was removed and the cells were washed with water. To the cells was added a 0.4% (W/V) dye SRB (dissolved in 1% acetic acid) solution to fix and stain the cell protein (Skehan P. et al., Journal of the National Cancer Institute Vol.82, pp.1107-1112, 1990). The dye solution was removed and the fixed and stained cell protein was washed. The protein-bound dye was extracted with 200 μl of 10 mM Tris buffer. The optical density of the extracted dye was determined at the wavelength of 540 nm to estimate the quantity of the cells in terms of the protein quantity. Designating the protein quantity in the control to which no compound solution was added as 100%, the proportion of the residual protein quantity in each treated group was calculated, and IC50, which was concentration of the compound required to inhibit the residual protein quantity to 50% the quantity of the control, was calculated.

[3] = test system: human prostate cancer cell line, LNCaP; test: In vivo inhibition of prostate cancer (2); design: species or system male Balb/C-strain athymic nude mice; conditions: for Tumor growth rate (%): 60 mg/kg/day, oral, 30 mg/kg twice daily for 21 days
Experimental: 5,000,000 cells of human prostate cancer cell line, LNCaP, were suspended in a gelmatrix solution and implanted subcutaneously at the breast in 8-week old male Balb/C-strain athymic nude mice (Friedman R. et al., Proceedings of the National Academy of Sciences of the U.S.A. Vol. 87, pp.6698-6702, 1990). 33 days after the implantation, the diameters of tumors were measured. Five mice per group with similar tumor size were used for the experiment. Compound 8 of the present invention was suspended in a 5% gum arabic solution (physiological saline) and administered orally twice daily in a dose of 30 mg/kg body weight for 21 days. For another experiment, the mice were castrated 33 days after implantation of the cancer cell for observing the effect of hormone depletion on the prostate cancer growth. Furthermore, Compound 8 of the present invention was administered orally twice daily in a dose of 30 mg/kg body weight for 21 days to the castrated mice. After the completion of the dosing, the diameters of tumor were measured. The tumor volume was calculated by the following formula: volume of tumor=longest diameter×shortest diameter×shortest diameter×1/2. The growth rate of tumors was obtained as the proportion to the volume of tumor in the control animals in which only the gum arabic solution was administered. The body weights of mice administered with Compound 8 of the present invention were measured during the experiment to observe no decrease.

HER2 [4] = target: T1, HER2; test: Inhibition of phosphorylation of receptor tyrosine in human breast cancer cells (2), MCF-7, heregulin-stimulated; type: cell-based; design: Human breast cancer cell line MCF-7 was used; endogenous in cells; host or cells: MCF-7; conditions: heregulin control = 100%, read-out: Phosphorylation of receptor tyrosine residue (%)
Experimental: Human breast cancer cell line MCF-7 was used. 1,000 μl of the cell suspension (250,000 cells) was seeded in each well of the 24-well plates. The culture were incubated at 37° C. in a 5% carbon dioxide gas incubator. On the next day, 100 μl of the 10-fold serial dilution of each compound solution was added to each well and, 2 hours later, 0.5 μg/ml of heregulin was added to it. After 5 minutes the extract solution was added to it to terminate the reaction, and the protein fraction was extracted. The protein was fractionated by the protein electrophoresis. The protein in the electrophoretic gel was transferred to a nylon filter. The filter was allowed to react with the phosphorylated tyrosine-specific antibody. The reaction product was fluorescence-labeled to expose a photofilm. The intensity of the exposure on the photofilm was quantitated by an image-analyzing apparatus. The proportion of the phosphorylation of HER2 tyrosine in the cells added with a compound solution of each concentration was calculated designating the phosphorylation of HER2 tyrosine in the heregulin-added cells as 100%.
Target sequence in this assay (P04626 23-1255): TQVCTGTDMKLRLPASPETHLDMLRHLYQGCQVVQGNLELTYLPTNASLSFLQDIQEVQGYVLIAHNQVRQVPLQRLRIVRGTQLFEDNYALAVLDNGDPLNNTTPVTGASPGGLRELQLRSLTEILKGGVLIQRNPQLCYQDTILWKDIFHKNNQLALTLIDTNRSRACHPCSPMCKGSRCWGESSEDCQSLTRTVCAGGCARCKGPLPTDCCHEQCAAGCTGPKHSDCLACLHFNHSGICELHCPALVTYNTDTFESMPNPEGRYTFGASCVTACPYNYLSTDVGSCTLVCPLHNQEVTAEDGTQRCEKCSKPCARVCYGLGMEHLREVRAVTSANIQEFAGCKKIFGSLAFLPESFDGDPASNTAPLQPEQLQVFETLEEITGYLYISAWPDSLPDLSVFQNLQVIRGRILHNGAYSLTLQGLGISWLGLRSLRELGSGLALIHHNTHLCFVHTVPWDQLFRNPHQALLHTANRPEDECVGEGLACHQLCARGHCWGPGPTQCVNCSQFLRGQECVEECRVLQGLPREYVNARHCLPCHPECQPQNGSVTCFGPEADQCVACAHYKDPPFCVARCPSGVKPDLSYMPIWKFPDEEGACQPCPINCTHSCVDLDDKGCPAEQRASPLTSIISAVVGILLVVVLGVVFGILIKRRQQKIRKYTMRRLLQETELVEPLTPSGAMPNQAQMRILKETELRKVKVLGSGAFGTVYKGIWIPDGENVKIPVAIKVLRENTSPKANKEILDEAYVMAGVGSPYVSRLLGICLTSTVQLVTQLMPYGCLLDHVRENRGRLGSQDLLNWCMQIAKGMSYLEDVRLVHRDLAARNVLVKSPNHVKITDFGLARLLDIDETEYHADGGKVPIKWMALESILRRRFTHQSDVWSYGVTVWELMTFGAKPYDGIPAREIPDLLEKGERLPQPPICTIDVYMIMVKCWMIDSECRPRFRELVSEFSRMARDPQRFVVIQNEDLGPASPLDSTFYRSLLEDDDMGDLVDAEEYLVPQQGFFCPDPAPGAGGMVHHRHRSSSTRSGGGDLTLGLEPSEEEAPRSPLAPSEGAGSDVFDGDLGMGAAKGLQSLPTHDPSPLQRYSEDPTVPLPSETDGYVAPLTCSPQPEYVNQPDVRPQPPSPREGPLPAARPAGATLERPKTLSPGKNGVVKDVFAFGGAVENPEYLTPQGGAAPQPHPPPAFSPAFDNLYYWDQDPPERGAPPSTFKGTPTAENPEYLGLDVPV

C(=C\c1nc(COc2ccc(CCCn3ccnc3)cc2)co1)/c1ccccc1 [Compound 8, 4-[4-[3-(1-imidazolyl)propyl]phenoxymethyl]-2-[(E)-2-phenylethenyl]oxazole]
IC50 (HER2 [1]): 20 µM
Selective inhibition of cell growth [2]: inhibit specifically the cell growth of human mammary cancer cell line
IC50 (MDA-MB-453): 0.25 µM
Tumor growth rate (%) ([3]; castrated group (castrated without compound: 69)): 55%
Tumor growth rate (%) ([3]; non-castrated, tumor volume vs control): 80%
Inhibition of implanted tumor growth ([3]; LNCaP, athymic nude mice): inhibiting tumor growth of hormone dependent prostate cancer LNCaP
Effect of castration on tumor growth inhibiting effect ([3]; LNCaP, castrated athymic nude mice): further enhanced when the hormone levels were reduced by castration
activity at 0.4 µM (HER2 [4]; MCF7, 0.4 μM): 67%
activity at 1.6 µM (HER2 [4]; MCF7, 1.6 μM): 41%
activity at 6.3 µM (HER2 [4]; MCF7, 6.3 μM): 32%
activity at 25 µM (HER2 [4]; MCF7, 25 μM): 30%
